In US11839661B2, “Rapid formation of supramolecular hydrogels by short peptide and bioactive small molecules” (BRANDEIS UNIVERSITY, priority 2017, dated 2023):
Values belong to the molecule of their own block, whether it stands above or below them. Square brackets hold non-standard residues; d marks the D form. Ends that are not written are not given here. Peptide text beside a SMILES is read from it. * marks the point of attachment. Acetyl(thymin-1-yl) = Cc1cn(CC(=O)*)c(=O)[nH]c1=O; Acetyl(2-naphthyl) = O=C(Cc1ccc2ccccc2c1)*

Assays:
[1] = test system: MES-SA/dx5 cells; assay: CLSM of inhibition of Dox efflux pump; format: cell-based; settings: MES-SA/dx5 cells without NP1 treatment, five hours after changing to medium without Dox
Procedure: Confocal Laser Scanning Microscopy (CLSM) Images of the Inhibition of Efflux Pump: To determine the potential drug efflux inhibitory effect by nucleopeptides, the drug efflux of free DOX was evaluated without or with incubation with nucleopeptide in efflux pumps overexpressing MES-SA/dx5 cells. After seeding 1.5×10^5 cells into 3.5 cm confocal dish and incubating at 37° C. for 24 h, the cells were incubated either with 10 μM free Dox or Dox with different concentration of nucleopeptide for 4 h. Then the medium was removed and the cells were washed three times with culture medium, and subsequently incubated with fresh complete medium for different time intervals (0, 2 or 5 h). At the end of incubation time, the cells were washed twice by live cell imaging buffer and stained nucleus by Hoechst 33342 for 10 minutes. After washed twice by live cell imaging, the cells were imaged immediately by Zeiss 880 microscope at the lens of 60×.

[2] = test system: MES-SA/dx5 cells; assay: MTT assay; format: cell-based; settings: 48 hours
Procedure: Cell culture and MTT assay: Cell culture was carried out with MES-SA/dx5 cells purchased from Sigma-Aldrich Corporation. These cells were cultured in Macyo's 5A medium supplemented with 10% v/v fetal bovine serum, 100 U/mL penicillin and 100 μg/mL streptomycin. The condition for cell culture was 37° C. in a humidified atmosphere of 5% CO2. The MTT assay was carried out using MES-SA/dx5 cells seeded in a 96-well plate with a density of 1*10^4 cells per-well (total medium volume of 100 μL). 24 hours post seeding, after the removal of the medium, solutions with serial of concentrations (5 concentrations) of different nucleopeptides were added to each well. Cells without the treatment of the precursors were used as the control. At designated time (24/48/72 hours), 10 μL MTT solution (5 mg/mL) was added to each well and incubated at 37° C. for another 4 h, and then 100 μL of SDS-HCl solution was added to stop the reduction reaction and dissolve the purple formazan. The absorbance of each well at 595 nm was measured by a multimode microplate reader. The cytotoxicity assay was performed three times and the average value of the three measurements was taken. All the statistical analysis used mean±SEM. The range of SEM is from 0.04 to 2.21.

[3] = test system: HS-5 (Human Bone Marrow Stromal) cell lines; assay: Biocompatibility with HS-5 cell lines; format: cell-based; settings: HS-5 cells, over 3 days, concentration range 20-500 μM
From the text: The biocompatibility of peptide 1 with HS-5 (Human Bone Marrow Stromal) cell lines was investigated over 3 days. […] It is expected, therefore, that peptide 1 is also compatible with other types of physiologically normal cells.

[4] = Doxorubicin release from hydrogel; format: physicochemical; settings: hydrogel of 1 (0.4 wt %) formed with 1 equivalent pyridoxal, Dox 200 μg/mL, 37° C.
Procedure: To load the drug, a solution of Dox (1 mg/mL) was added during the gelling process. After the hydrogel formed by addition of pyridoxal or ATP (final concentration of 1 is 0.4 wt % and doxorubicin was 200 μg/mL). 0.25 mL of PBS (0.1 M phosphate-buffered saline (PBS, pH 7.4) or 0.1 M acetate buffer solution (pH 5.0)) was added onto the surface of the hydrogels, 0.2 mL of solution was taken out at the desired time point and 0.2 mL of PBS was added back. For the following time points, 0.2 mL of PBS was taken out and 0.2 mL of PBS was added back at each point. Using this process, the release of Dox was monitored by measuring the absorbance of Dox at wavelength of 480 nm, and its release profile calculated. The experiment was performed at 37° C. in triplicate. The results are shown in FIGS. 9A-B. As expected, the hydrogel releases the Dox according to the type of small bioactive molecules and pH.

[5] = Hydrogelation / gelation time by vial inverse method; format: physicochemical
Procedure: Hydrogel Preparation: Compound 1 (5.0 mg) was dissolved in 1 mL of aqueous buffer (sodium hydroxide was used to adjust the final pH to 7.4), and the hydrogels were formed after the addition of different equivalents of small molecules (initial concentration is 100 mM), the final concentration of 1 is 0.4 wt % in all hydrogels. The gelation time of 1 with different bioactive small molecules was determined by vial inverse method.

[6] = Rheology (storage and loss moduli); format: physicochemical
Procedure: Rheology Experiments: The rheological tests were performed on TA ARES-G2 rheometer, parallel-plate geometry with an upper plate diameter of 25 mm and a gap of 0.4 mm. During the measurement, the stage temperature was maintained at 25° C. by Peltier heating/cooling system. The hydrogel was loaded into stage by spatula. For the rheology testing in Examples 1-7, a time sweep was performed at the frequency of 6.28 rad/s and the strain for 1.0%, and a frequency sweep was performed at the range of 0.1 to 200 rad/s and strain is 1.0%. For the rheology testing in Examples 8-12, a strain sweep (0.1% to 100%) was performed at the frequency of 6.28 rad/s, and a frequency sweep was performed at the range of 0.1 to 200 rad/s and strain is 1.0%.

[7] = molecular target: MBP-ASC^PYD (Homo sapiens, UniProt Q9ULZ3); assay: TEM of MBP-ASC^PYD oligomerization on co-incubation with P5P; format: biochemical; settings: P5P 100 μM co-incubated with MBP-ASC^PYD (1 mg/mL, ~18 μM)
Chain of MBP-ASC^PYD (Q9ULZ3 1-91 limits assumed): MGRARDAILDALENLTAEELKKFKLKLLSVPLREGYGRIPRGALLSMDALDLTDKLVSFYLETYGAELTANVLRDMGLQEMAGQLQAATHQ

[8] = Sequestration of ATP by nucleopeptide (phase transition); format: binding
Procedure: (§1) Sample Preparation and Process for Sequestering ATP by Nucleopeptide: Typically, nucleopeptide […] was dissolved in 1 mL of PBS buffer. A minimal amount of sodium hydroxide was used to adjust the final pH to 7.4 to form 5.0 wt % solution of the nucleopeptide. ATP or ADP was dissolved in PBS buffer at the concentration of 100 mM with the final pH of 7.4. To test sequestration ability of nucleopeptide, we mixed the solution of 5.0 wt % of nucleopeptide with ATP (ADP) in different molar ratio and stirred the mixture with pipettor gently. The mixture was kept at room temperature and used for different characterizations. The sequestration of ATP (or ADP) results in phase transition, from the solution to precipitates or hydrogel, which is observable by naked eyes. Such phase transitions were further characterized by TEM, CD, SLS and rheology according to the same procedure for sample preparation.

[9] = Interaction of nucleopeptide with ADP (phase transition); format: binding; settings: PBS buffer pH 7.4
Procedure: as §1

[10] = 1 at 0.4 wt %, 1 equivalent folinic acid
[11] = 1 at 0.4 wt %, 1 equivalent pyridoxal
[12] = 1 at 0.4 wt %, 4 equivalents folinic acid
[13] = 1 at 0.4 wt %, 4 equivalents pyridoxal

Molecule: COc1cccc2c1C(=O)c1c(O)c3c(c(O)c1C2=O)C[C@@](O)(C(=O)CO)C[C@@H]3O[C@H]1C[C@H](N)[C@H](O)[C@H](C)O1 [Dox, doxorubicin, reference compound]
cellular retention of Dox (efflux) [1]: little Dox
cell death ([2]; Dox alone (5 mm as printed)): 46%

Molecule: Cc1cn(CC(=O)N[C@H](Cc2ccccc2)C(=O)N[C@H](Cc2ccccc2)C(=O)N[C@H](CCCCN)C(=O)N[C@H](CCCCN)C(=O)N[C@H](Cc2ccccc2)C(=O)N[C@H](CCCCN)C(=O)N[C@H](CC(C)C)C(=O)N[C@H](CCCCN)C(=O)N[C@H](CC(C)C)C(=O)O)c(=O)[nH]c1=O [NP1, thyminylacetyl-ffkkfklkl] ({Acetyl(thymin-1-yl)}-[dF][dF][dK][dK][dF][dK][dL][dK][dL]-OH)
cytotoxicity ([2]; NP1 by itself): little cytotoxicity

biocompatibility [3]: cell-compatible
release of doxorubicin from hydrogel ([4]; pH 5.0, 12 h): about 85%
release of doxorubicin from hydrogel ([4]; pH 7.4, 12 h): 50%
tendency for hydrogelation (state in aqueous solution) ([5]; 1 alone, 0.4 wt %, pH 7.4): transparent viscous solution
gelation time ([5]; 1 at 0.4 wt %, 1 equivalent AMP): 11 s
gelation time [5, 10]: about 8 seconds
gelation time (sol-gel phase transition) [5, 11]: 190 s
gelation time ([5]; 1 at 0.4 wt %, 1 or 4 equivalents ATP): about 7 seconds
gelation time ([5]; 1 at 0.4 wt %, 4 equivalents AMP): 5 s
gelation time [5, 12]: ~7 s
gelation time [5, 13]: ≤ 19 s
gelation time ([5]; 1 at 0.4 wt %, four molar equivalents of P5P): 4 s
gelation time ([5]; 1 at 0.4 wt %, pH 7.4, equal molar P5P): ≤ 10 s
gelation time ([5]; 1 at 0.4 wt %, two to four molar equivalents of P5P): ≤ 10 s
storage modulus [6, 10]: 64 Pa
cross point of G′ and G″ [6, 11]: 77 s
storage modulus G′ [6, 11]: 55 Pa
storage modulus [6, 12]: 78 Pa
storage modulus G′ [6, 13]: 980 Pa
storage modulus G′ ([6]; 1 at 0.4 wt %, one equivalent of P5P): 40 Pa
mechanical properties ([6]; 1 in the presence of ATP or AMP): change little
storage modulus G′ ([6]; 1 itself, 0.4 wt %, after 1 h incubation): around 6 Pa
G′ relative to hydrogel formed with 1 equivalent pyridoxal ([6]; 4 equivalents pyridoxal): 18 times
G′ relative to G′ of 1 itself ([6]; one equivalent of P5P): 8 times
Molecule: CC(C)C[C@H](NC(=O)[C@H](CCCCN)NC(=O)[C@H](CC(C)C)NC(=O)[C@H](CCCCN)NC(=O)[C@H](Cc1ccccc1)NC(=O)[C@H](CCCCN)NC(=O)[C@H](CCCCN)NC(=O)[C@H](Cc1ccccc1)NC(=O)[C@H](Cc1ccccc1)NC(=O)Cc1ccc2ccccc2c1)C(=O)O [Peptide 1] ({Acetyl(2-naphthyl)}-FFKKFKLKL-OH; C-terminus assumed)

oligomerization of MBP-ASC^PYD [7]: modulates the oligomerization
Molecule: Cc1ncc(COP(=O)(O)O)c(C=O)c1O [Peptide P5P, pyridoxal-5-phosphate]

Molecule: thyminylacetyl-FF [NP11]
ability to sequester ATP [8]: unable to sequester ATP

Molecule: thyminylacetyl-FFK [NP10]
ability to sequester ATP [8]: unable to sequester ATP

Molecule: thyminylacetyl-FFKK [NP9]
ability to sequester ATP [8]: unable to sequester ATP

Molecule: thyminylacetyl-FFKKF ({Acetyl(thymin-1-yl)}-FFKKF) [NP6]
ability to sequester ATP [8]: able to sequester ATP

Molecule: thyminylacetyl-FFKKFK ({Acetyl(thymin-1-yl)}-FFKKFK) [NP8]
ability to sequester ATP [8]: unable to sequester ATP

Molecule: thyminylacetyl-FFKKFKL ({Acetyl(thymin-1-yl)}-FFKKFKL) [NP4]
ability to sequester ATP [8]: able to sequester ATP

Molecule: thyminylacetyl-FFKKFKLK ({Acetyl(thymin-1-yl)}-FFKKFKLK) [NP7]
ability to sequester ATP [8]: unable to sequester ATP

Molecule: thyminylacetyl-FFKKFKLKL ({Acetyl(thymin-1-yl)}-FFKKFKLKL) [NP2]
ability to sequester ATP [8]: able to sequester ATP
phase transition after addition of ATP ([8]; PBS buffer pH 7.4): precipitates
phase transition in the presence of ADP [9]: remains as a transparent solution

Molecule: thyminylacetyl-KKFKLKL ({Acetyl(thymin-1-yl)}-KKFKLKL) [NP12]
ability to sequester ATP [8]: unable to sequester ATP

Molecule: thyminylacetyl-ffkkf [NP5]
ability to sequester ATP [8]: able to sequester ATP

Molecule: thyminylacetyl-ffkkfkl [NP3]
ability to sequester ATP [8]: able to sequester ATP
